# Results as given in patent publication US6649626B1, “N-substituted 1-(lactone) isoquinolones for treating nervous disorders” (Centre National de la Recherche Scientifique (CNRS), priority 1999, dated 2003).
# How the values were obtained:
# [1] = target: T1, α1β2γ2 subtype of the GABA receptor (Rattus norvegicus, UniProt P18508+P62813+P63138); test: Electrophysiology: modulation of GABA currents in Xenopus oocytes expressing recombinant GABA-A receptors; assay type: cell-based; settings: for % stimulation of the GABA currents / % stimulation of the GABA currents (100 μM): α1β2γ2 in oocytes; for % stimulation of the GABA currents (100 μM): 100 μM compound with GABA
# T1 construct: expressed in transfected cells; host or cells: Xenopus laevis oocytes (cRNA injection)
# [2] = target: T2, benzodiazepine-binding site of the GABA-A receptor (Rattus norvegicus, UniProt P18508+P62813); test: Displacement of tritiated flunitrazepam from brain membranes; settings: for inhibition at 100 µM: read-out: Inhibition of the tritiated ligands % Flu (100 μM)
# T2 construct: IC50 Flu / BZ receptor; other: cerebellum (ce); other: cerebellum (ce; BZ1 subtype); other: 10 μM; cerebellum; other: 100 μM; other: 0.5 μM
# [3] = test system: Ro15-4513 binding (GABA-A receptor); test: Ro15-4513 displacement; settings: 100 μM
# [4] = test system: GABA-binding site of the GABA-A receptor; test: Displacement of tritiated muscimol from brain membranes; settings: for Muscimol: stimulation: stimulation instead of displacement
# [5] = test system: picrotoxin-binding site of the GABA-A receptor; test: Displacement of 35S-TBPS from brain membranes; parameters: species or system rats
# [6] = test system: benzodiazepine-binding site of the GABA-A receptor; test: Displacement of tritiated flunitrazepam from brain membranes
# T2 sequence (P62813 28-455): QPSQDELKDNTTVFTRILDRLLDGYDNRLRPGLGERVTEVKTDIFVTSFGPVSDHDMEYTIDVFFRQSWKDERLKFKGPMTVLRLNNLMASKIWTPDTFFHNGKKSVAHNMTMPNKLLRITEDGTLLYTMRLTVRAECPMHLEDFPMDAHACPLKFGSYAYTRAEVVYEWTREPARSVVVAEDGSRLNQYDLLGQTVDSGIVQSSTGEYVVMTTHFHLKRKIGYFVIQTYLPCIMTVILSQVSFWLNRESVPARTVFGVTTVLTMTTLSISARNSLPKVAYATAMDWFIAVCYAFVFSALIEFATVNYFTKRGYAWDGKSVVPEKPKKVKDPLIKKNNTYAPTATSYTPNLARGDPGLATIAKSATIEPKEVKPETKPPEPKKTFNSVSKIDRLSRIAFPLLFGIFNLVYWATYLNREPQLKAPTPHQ
# T2 sequence (P18508 39-466): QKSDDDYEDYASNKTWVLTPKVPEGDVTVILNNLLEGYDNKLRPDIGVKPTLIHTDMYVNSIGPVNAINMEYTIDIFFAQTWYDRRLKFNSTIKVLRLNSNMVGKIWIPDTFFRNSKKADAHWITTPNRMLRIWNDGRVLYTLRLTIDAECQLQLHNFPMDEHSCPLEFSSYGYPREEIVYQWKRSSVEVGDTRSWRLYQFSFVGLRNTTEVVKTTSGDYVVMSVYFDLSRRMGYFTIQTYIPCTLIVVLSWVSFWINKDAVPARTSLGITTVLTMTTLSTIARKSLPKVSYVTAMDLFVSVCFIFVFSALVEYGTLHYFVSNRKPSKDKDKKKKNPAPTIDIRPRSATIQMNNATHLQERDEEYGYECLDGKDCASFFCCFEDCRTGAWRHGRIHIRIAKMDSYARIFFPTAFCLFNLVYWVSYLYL
# T2 sequence (P63138 26-474 partner): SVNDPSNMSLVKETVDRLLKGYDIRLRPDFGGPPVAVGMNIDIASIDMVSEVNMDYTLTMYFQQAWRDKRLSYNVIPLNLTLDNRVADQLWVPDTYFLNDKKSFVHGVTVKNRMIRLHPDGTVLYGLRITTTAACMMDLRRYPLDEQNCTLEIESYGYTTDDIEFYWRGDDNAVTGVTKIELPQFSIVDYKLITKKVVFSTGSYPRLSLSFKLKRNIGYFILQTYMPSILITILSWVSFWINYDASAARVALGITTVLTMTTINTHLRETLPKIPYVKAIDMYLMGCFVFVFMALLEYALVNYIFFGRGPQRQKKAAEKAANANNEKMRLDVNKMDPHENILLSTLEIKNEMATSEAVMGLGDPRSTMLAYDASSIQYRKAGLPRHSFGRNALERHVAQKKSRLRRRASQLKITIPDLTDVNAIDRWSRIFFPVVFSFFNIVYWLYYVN
# T1 sequence (P62813 28-455): as the sequence (P62813 28-455) above
# T1 sequence (P63138 25-474 limits assumed): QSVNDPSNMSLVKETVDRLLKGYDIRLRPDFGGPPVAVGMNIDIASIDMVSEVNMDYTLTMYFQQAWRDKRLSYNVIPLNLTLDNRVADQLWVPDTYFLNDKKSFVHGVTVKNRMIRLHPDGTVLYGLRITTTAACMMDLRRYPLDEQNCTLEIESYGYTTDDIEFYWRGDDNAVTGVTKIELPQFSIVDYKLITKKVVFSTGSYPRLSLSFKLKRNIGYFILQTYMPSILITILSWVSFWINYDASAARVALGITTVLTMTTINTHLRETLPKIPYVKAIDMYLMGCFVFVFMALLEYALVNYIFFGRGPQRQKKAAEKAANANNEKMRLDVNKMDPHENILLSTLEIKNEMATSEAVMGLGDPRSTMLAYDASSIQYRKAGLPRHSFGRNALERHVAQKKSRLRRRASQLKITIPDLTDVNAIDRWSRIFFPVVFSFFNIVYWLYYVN
# T1 sequence (P18508 39-466): as the sequence (P18508 39-466) above
smiles,measurement,setting,value
"COc1cc2c(cc1OC)[C@H]([C@@H]1CCC(=O)O1)NCC2 (racemic) [Compound 27b, (±)-Threo-6,7-dimethoxy-1-(2,3,4,5-tetrahydro-5-oxo-2-furyl)-1,2,3,4-tetrahydroisoquinoline]",% stimulation of the GABA currents,[1]; 200 μM compound,200 μM = −6%
same,Inhibition of the tritiated ligands % Flu (100 μM),[2]; tissue not stated,negligible
COc1cc2c(cc1OC)C(C1CCC(=O)O1)N(C)CC2 (racemic) [Compound 28],Ro15-4513 displacement,[3],Ro15-4513 displacement 100 μM = 50%
same,% stimulation of the GABA currents,[1]; 200 μM compound,200 μM = +2%
same,inhibition at 100 µM,[2]; tissue not stated,50%
COc1cc2c(cc1OC)[C@H]([C@@H]1C=C(C)C(=O)O1)N(C)CC2 (racemic) [Compound 30b],% stimulation of the GABA currents (100 μM),[1],−10%
same,Inhibition of the tritiated ligands % Flu (100 μM),[2]; tissue not stated,negligible
"COc1cc2c(cc1OC)[C@H]([C@@H]1C=CC(=O)O1)N(C(=O)OCc1ccccc1)CC2 (racemic) [Compound 32b, (±)-(1R,2′S)-1-(2,5-Dihydro-5-oxo-2-furyl)-2-N-benzyloxycarbonyl-6,7-dimethoxy-1,2,3,4-tetrahydroisoquinoline]",Displacement of muscimol,[4]; concentration not given,Displacement of muscimol = 0%
COc1cc2c(cc1OC)C(C1C=CC(=O)O1)NCC2 (racemic) [Compound 42],% stimulation of the GABA currents,[1]; 0.1 μM compound,0%
same,% stimulation of the GABA currents (100 μM),[1],−45 ± 6%
same,inhibition at 10 µM,"[2]; 10 μM, tissue not stated, read-out: Inhibition of the tritiated ligands % Flu",0%
same,inhibition at 100 µM,[2]; tissue not stated,30%
same,Displacement of muscimol,[4]; 10 μM,0%
same,Displacement of muscimol,[4]; 100 μM,20%
CC1=C[C@@H]([C@H]2c3cc4c(cc3CCN2C)OCO4)OC1=O (racemic) [Compound 43],Inhibition of the tritiated ligands % TBPS,[5]; 10 μM,10%
same,% stimulation of the GABA currents (100 μM),[1],−7 ± 2%
same,inhibition at 100 µM,[2]; tissue not stated,~20%
same,Displacement of muscimol,[4]; 0.5 μM,30%
same,Displacement of muscimol,[4]; 10 μM,45%
same,Displacement of muscimol,[4]; 100 μM,50%
O=C1C=CC(C2c3cc4c(cc3CCN2C(=O)OCc2ccccc2)OCO4)O1 (racemic) [Compound 44],Inhibition of the tritiated ligands % TBPS,[5]; 0.5 μM,0%
same,Inhibition of the tritiated ligands % TBPS,[5]; 10 μM,25%
same,% stimulation of the GABA currents,[1]; 0.1 μM compound,0%
same,% stimulation of the GABA currents,[1]; 50 μM compound,+215 ± 16%
same,Inhibition of the tritiated ligands % Flu,"[2]; 0.5 μM, tissue not stated",< 5%
same,Inhibition of the tritiated ligands % Flu,"[2]; 10 μM, tissue not stated",20%
same,Inhibition of the tritiated ligands % Flu (100 μM),[2]; tissue not stated,45%
same,Displacement of muscimol,[4]; 0.5 μM,10%
same,Displacement of muscimol,[4]; 10 μM,0%
same,Muscimol: stimulation,[4]; 100 μM,10%
COc1cc2c(cc1OC)C(C1C=C(C)C(=O)O1)N(C(=O)OCc1ccccc1)CC2 (racemic) [Compound 46],% stimulation of the GABA currents,[1]; 0.1 μM compound,0%
same,% stimulation of the GABA currents (100 μM),[1],24 ± 5%
same,Inhibition of the tritiated ligands % Flu (100 μM),[2]; tissue not stated,0%
same,Displacement of muscimol,[4]; 100 μM,100 μM = 0%
COc1cc2c(cc1OC)C(C1C=C(C)C(=O)O1)N(C(=O)OCc1ccccc1)CC2 (racemic) [Compound 47],% stimulation of the GABA currents,[1]; 0.1 μM compound,0%
same,% stimulation of the GABA currents (100 μM),[1],60 ± 26%
same,Inhibition of the tritiated ligands % Flu (100 μM),[2]; tissue not stated,10%
same,Displacement of muscimol,[4]; 100 μM,100 μM = 0%
"COc1cc2c(cc1OC)C(C1CCC(=O)O1)N(C(=O)OCc1ccccc1)CC2 (racemic) [Compound 48, (±)-(1R,2′R)-2-N-Benzyloxycarbonyl-6,7-dimethoxy-1-(2,3,4,5-tetrahydro-5-oxo-2-furyl)-1,2,3,4-tetrahydroisoquinoline]",% stimulation of the GABA currents,[1]; 0.1 μM compound,0%
same,% stimulation of the GABA currents (100 μM),[1],+159 ± 31%
same,% stimulation of the GABA currents (100 μM),[1]; listed as (+/−) 48,+159%
same,inhibition at 100 µM,[2]; tissue not stated,35%
COc1cc2c(cc1OC)[C@H]([C@@H]1CCC(=O)O1)N(C(=O)OCc1ccccc1)CC2 (racemic) [Compound 49],Inhibition of the tritiated ligands % TBPS,[5]; 10 μM,0%
same,% stimulation of the GABA currents,[1]; 0.1 μM compound,0%
same,% stimulation of the GABA currents (100 μM),[1],+67 ± 9%
same,Inhibition of the tritiated ligands % Flu (100 μM),[2]; tissue not stated,30%
same,Displacement of muscimol,[4]; 100 μM,100 μM = 0%
O=C1C=CC(C2c3ccccc3CCN2C(=O)OCc2ccccc2)O1 (racemic) [Compound 50],Inhibition of the tritiated ligands % TBPS,[5]; 0.5 μM,5%
same,Inhibition of the tritiated ligands % TBPS,[5]; 10 μM,30%
same,% stimulation of the GABA currents,[1]; 0.1 μM compound,+26 ± 6%
same,% stimulation of the GABA currents (100 μM),[1],+281 ± 35%
same,blockade of the stimulation by flumazenil (in words),[1]; printed after the 0.1 μM value,completely blocked by flumazenil
same,Inhibition of the tritiated ligands % Flu,"[2]; 0.5 μM, tissue not stated",55%
same,Inhibition of the tritiated ligands % Flu,"[2]; 10 μM, tissue not stated",90%
same,Inhibition of the tritiated ligands % Flu (100 μM),[2]; tissue not stated,100%
same,Displacement of muscimol,[4]; 100 μM,100 μM = 0%
O=C1C=CC(C2c3ccccc3CCN2C(=O)OCc2ccccc2)O1 (racemic) [Compound 51],Inhibition of the tritiated ligands % TBPS,[5]; 0.5 μM,0%
same,Inhibition of the tritiated ligands % TBPS,[5]; 10 μM,20%
same,% stimulation of the GABA currents,[1]; 0.1 μM compound,0%
same,% stimulation of the GABA currents (100 μM),[1],+225 ± 68%
same,Inhibition of the tritiated ligands % Flu,"[2]; 0.5 μM, tissue not stated",0%
same,Inhibition of the tritiated ligands % Flu,"[2]; 10 μM, tissue not stated",50%
same,Inhibition of the tritiated ligands % Flu (100 μM),[2]; tissue not stated,85%
same,Displacement of muscimol,[4]; 100 μM,100 μM = 0%
O=C1C=CC(C2c3ccccc3CCN2C(=O)Cc2ccccc2)O1 (racemic) [Compound 55],% stimulation of the GABA currents,[1]; 0.1 μM compound,0%
same,% stimulation of the GABA currents (100 μM),[1],+33 ± 4%
same,Inhibition of the tritiated ligands % Flu (100 μM),[2]; tissue not stated,95%
same,Inhibition of the tritiated ligands % Flu,"[6]; 0.5 μM, cerebellum",30%
same,Inhibition of the tritiated ligands % Flu,"[6]; 0.5 μM, cortex",20%
same,Inhibition of the tritiated ligands % Flu,"[6]; 10 μM, cerebellum",80%
same,Inhibition of the tritiated ligands % Flu,"[6]; 10 μM, cortex",70%
same,Displacement of muscimol,[4]; 100 μM,100 μM = 0%
O=C1C=CC(C2c3ccccc3CCN2C(=O)Cc2ccccc2)O1 (racemic) [Compound 56],block of the stimulation caused by 20 μM of 164B,[1]; 100 μM,blocks the stimulation caused by 20 μM of 164B
same,% stimulation of the GABA currents (100 μM),[1],+10 ± 17%
same,Inhibition of the tritiated ligands % Flu,"[2]; 0.5 μM, cerebellum",30%
same,Inhibition of the tritiated ligands % Flu,"[2]; 0.5 μM, cortex",20%
same,Inhibition of the tritiated ligands % Flu,"[2]; 10 μM, cerebellum",80%
same,Inhibition of the tritiated ligands % Flu,"[2]; 10 μM, cortex",70%
same,Inhibition of the tritiated ligands % Flu (100 μM),[2]; cerebellum,85%
same,Inhibition of the tritiated ligands % Flu (100 μM),[2]; cortex,90%
same,Displacement of muscimol,[4]; 100 μM,100 μM = 0%
O=C1C=CC(C2c3ccccc3CCN2C(=O)Oc2ccccc2)O1 (racemic) [Compound 57],% stimulation of the GABA currents,[1]; 0.1 μM compound,0%
same,% stimulation of the GABA currents (100 μM),[1],+175 ± 13%
same,Inhibition of the tritiated ligands % Flu,"[2]; 0.5 μM, cerebellum",35%
same,Inhibition of the tritiated ligands % Flu,"[2]; 0.5 μM, cortex",25%
same,Inhibition of the tritiated ligands % Flu,"[2]; 10 μM, cerebellum",90%
same,Inhibition of the tritiated ligands % Flu,"[2]; 10 μM, cortex",75%
same,Inhibition of the tritiated ligands % Flu (100 μM),[2]; cerebellum,90%
same,Inhibition of the tritiated ligands % Flu (100 μM),[2]; cortex,85%
same,Displacement of muscimol,[4]; 10 μM,0%
same,Muscimol: stimulation,[4]; 100 μM,10-20%
O=C1C=CC(C2c3ccccc3CCN2C(=O)Oc2ccccc2)O1 (racemic) [Compound 58],Inhibition of the tritiated ligands % TBPS,[5]; 10 μM,0%
same,% stimulation of the GABA currents,[1]; 0.1 μM compound,0%
same,% stimulation of the GABA currents (100 μM),[1],+159 ± 8%
same,Inhibition of the tritiated ligands % Flu (100 μM),[2]; tissue not stated,70%
same,Inhibition of the tritiated ligands % Flu,"[6]; 0.5 μM, tissue not stated",0%
same,Inhibition of the tritiated ligands % Flu,"[6]; 10 μM, tissue not stated",45%
same,Displacement of muscimol,[4]; 100 μM,100 μM = 0%
O=C1C=CC(C2c3ccccc3CCN2C(=O)c2ccccc2)O1 (racemic) [Compound 60],% stimulation of the GABA currents,[1]; 0.1 μM compound,0%
same,% stimulation of the GABA currents (100 μM),[1],+14 ± 13%
same,Inhibition of the tritiated ligands % Flu,"[2]; 0.5 μM, cerebellum",35%
same,Inhibition of the tritiated ligands % Flu,"[2]; 0.5 μM, cortex",25%
same,Inhibition of the tritiated ligands % Flu,"[2]; 10 μM, cerebellum",90%
same,Inhibition of the tritiated ligands % Flu,"[2]; 10 μM, cortex",80%
same,Inhibition of the tritiated ligands % Flu (100 μM),[2]; tissue not stated,90%
same,Displacement of muscimol,[4]; 100 μM,100 μM = 0%
"Cc1ccc(S(=O)(=O)N2CCc3ccccc3C2[C@H]2CCC(=O)O2)cc1 (mixture of isomers) [Compound 67, (±)-(1R,2′R)-1-(2,3,4,5-Tetrahydro-5-oxo-2-furyl)-2-N-p-toluenesulfonyl-1,2,3,4-tetrahydroisoquinoline]",% stimulation of the GABA currents,[1]; 0.1 μM compound,7 ± 5%
same,% stimulation of the GABA currents (100 μM),[1],+579 ± 106%
same,% stimulation of the GABA currents (100 μM),[1]; listed as (+/−) 67,+579%
same,Inhibition of the tritiated ligands % Flu,"[2]; 10 μM, tissue not stated",20%
same,Inhibition of the tritiated ligands % Flu (100 μM),[2]; cerebellum,50%
same,Inhibition of the tritiated ligands % Flu (100 μM),[2]; cortex,30%
same,Inhibition of the tritiated ligands % Flu,"[6]; 0.5 μM, tissue not stated",0%
same,Muscimol: stimulation,[4]; 100 μM,Muscimol: 5-10% stimulation at 100 μM
Cc1ccc(S(=O)(=O)N2CCc3ccccc3C2C2CCC(=O)N2)cc1 (racemic) [Compound 73],% stimulation of the GABA currents (100 μM),[1],26 ± 8%
"Cc1ccc(S(=O)(=O)N2C=Cc3ccccc3C2[C@H]2CCC(=O)O2)cc1 (mixture of isomers) [Compound 76, (±)-(1R,2′R)-2-N-Tosyl-1-(2,3,4,5-tetrahydro-5-oxo-2-furyl)-1,2-dihydroisoquinoline]",% stimulation of the GABA currents,[1]; 10 μM compound,97 ± 2%
same,% stimulation of the GABA currents (100 μM),[1],+481 ± 116%
same,Inhibition of the tritiated ligands % Flu (100 μM),[2]; tissue not stated,0%
same,Muscimol: stimulation,[4]; 100 μM,20% stimulation at 100 μM
"Cc1ccc(S(=O)(=O)N2CCc3ccccc3C2C2CCC(=O)O2)cc1 (single isomer, unassigned) [Compound 68]",% stimulation of the GABA currents (100 μM),[1],+184 ± 43%
same,% stimulation of the GABA currents (100 μM),[1]; listed as (−) 68,+184%
"Cc1ccc(S(=O)(=O)N2CCc3ccccc3C2C2CCC(=O)O2)cc1 (single isomer, unassigned) [Compound 69]",portion of the stimulatory activity due to a binding site distinct from those for the benzodiazepines,[1],< 70%
same,% stimulation of the GABA currents (100 μM),[1],+859 ± 75%
same,% stimulation of the GABA currents (100 μM),[1]; listed as (−) 69,+859%
same,% of the stimulation inhibited by flumazenil,"[1]; stimulation by 20 μM compound, 1 μM flumazenil",28%
